# Assays:
# [1] = tested on: 293-VnR cells transfected with ADAM12Δcyt; experiment: In situ solid-phase gelatinase assay, 293-VnR cells transfected with ADAM12Δcyt; assay type: cell-based, human; conditions: 10 μM overnight vs vehicle only
# Procedure: Data are expressed as the mean gelatin degradation (±s.d.) relative to the mean ADAM12Δcyt degradation value (set at 100%). (B) In situ solid-phase gelatinase assay of 293-VnR cells transfected with ADAM12Δcyt or control vector and treated with GM6001 (10 μM), TAPI-2 (10 μM), or vehicle only (control) overnight. Cells were stained for ADAM12 and for the nucleus (DAPI). The mean number of gelatin-degrading ADAM12-positive cells (±s.d.) is presented as a percentage of the total number of ADAM12-positive cells. (C) In situ solid-phase gelatinase assay of 293-VnR cells cotransfected with ADAM12Δcyt and control or MMP-14 siRNA. Mean data (±s.d.) are expressed relative to the mean siRNA control degradation value (set at 100%). Inset, Western blots of total cell lysates analyzed for MMP-14. […] Gelatin degradation was quantified by measuring the degraded area in μm^2 and correlated to the number of cells. […]
# (A) In situ solid-phase gelatinase assay of HEK293 cells transfected with ADAM12Δcyt and immunostained for ADAM12, and DAPI staining. […] Precipitates and input samples were analysed by Western blotting with indicated antibodies. […] (E) Mean percentage cell-surface staining of αVβ3 integrin (LM609 antibody staining) for MCF7, MCF7-A12Δcyt, MCF7-A12Δcyt+dox, and MDA-MB-231 cell lines analyzed by FACS. […]
# MDA-MB-231 cells = experiment: Apoptosis in 3-D collagen cultures, MDA-MB-231; assay type: cell-based, human; conditions: 10 μg/ml 8F8 or 10 μM GM6001 every second day, compared with control cells
# Procedure: (§1) (A) MCF7, MCF7-A12Δcyt, and MCF7-A12Δcyt+dox cell lines were embedded in 3-D collagen and the mean percentage of apoptotic bodies (±s.d.) was determined from >500 cells per experiment. (B) Western blot analysis of ADAM12, MMP-14, BIK, and BIM from cells recovered from 3-D collagen. The bar graph depicts levels of BIK and BIM; determined by quantification of the band intensities (using ImageJ software) and normalized to actin. The MCF7 level was set to 1. (C,D) Mean percentage of apoptotic bodies (±s.d.) from >500 cells of 3-D collagen cultures of MCF7, MCF7-A12Δcyt, and MCF7-A12Δcyt+dox (C) and MDA-MB-231. (D) Cells treated every second day with control mouse IgG, 10 μg/ml 8F8, or 10 μM GM6001. (E) Western blot of cells recovered from 3-D cultures of MDA-MB-231 cells analyzed for MMP-14 after siRNA treatment. […]
# (§2) (A) A representative micrograph of MCF7-A12Δcyt+dox cells extracted from 3-D cultures and stained with DAPI. Apoptosis was evaluated by counting the percentage of the number of cells with chromatin condensation and nuclear fragmentation (arrow=apoptotic bodies). […]
# (§3) Cells were seeded on dishes coated with gelatin (10 μg/ml) coupled to Oregon Green® 488 dye (G-13186) from Molecular Probes (Life Technologies, Naerum, Denmark). […] For each experiment more than 1000 cells were counted and same type of experiment was repeated independently at least three times. […]
# MCF7-A12Δcyt+dox cells = experiment: Type I collagen-induced apoptosis in 3-D collagen cultures, MCF7-A12Δcyt+dox; assay type: cell-based, human; conditions: 10 μg/ml 8F8 or 10 μM GM6001 every second day
# Procedure: as §1, §2, §3
# MCF7-A12Δcyt cells = experiment: Type I collagen-induced apoptosis in 3-D collagen cultures, MCF7-A12Δcyt; assay type: cell-based, human; conditions: 10 μM GM6001 every second day
# Procedure: as §1, §2, §3
# wild-type MCF7 cells = experiment: Type I collagen-induced apoptosis in 3-D collagen cultures, wild-type MCF7; assay type: cell-based, human; conditions: 10 μg/ml 8F8 or 10 μM GM6001 every second day
# Procedure: as §1, §2, §3
# αVβ3 integrin = αVβ3 integrin (UniProt P06756); experiment: cell-based or functional assay
# Sequence of UniProt P06756 (P06756 31-1048, chain 1 of 2): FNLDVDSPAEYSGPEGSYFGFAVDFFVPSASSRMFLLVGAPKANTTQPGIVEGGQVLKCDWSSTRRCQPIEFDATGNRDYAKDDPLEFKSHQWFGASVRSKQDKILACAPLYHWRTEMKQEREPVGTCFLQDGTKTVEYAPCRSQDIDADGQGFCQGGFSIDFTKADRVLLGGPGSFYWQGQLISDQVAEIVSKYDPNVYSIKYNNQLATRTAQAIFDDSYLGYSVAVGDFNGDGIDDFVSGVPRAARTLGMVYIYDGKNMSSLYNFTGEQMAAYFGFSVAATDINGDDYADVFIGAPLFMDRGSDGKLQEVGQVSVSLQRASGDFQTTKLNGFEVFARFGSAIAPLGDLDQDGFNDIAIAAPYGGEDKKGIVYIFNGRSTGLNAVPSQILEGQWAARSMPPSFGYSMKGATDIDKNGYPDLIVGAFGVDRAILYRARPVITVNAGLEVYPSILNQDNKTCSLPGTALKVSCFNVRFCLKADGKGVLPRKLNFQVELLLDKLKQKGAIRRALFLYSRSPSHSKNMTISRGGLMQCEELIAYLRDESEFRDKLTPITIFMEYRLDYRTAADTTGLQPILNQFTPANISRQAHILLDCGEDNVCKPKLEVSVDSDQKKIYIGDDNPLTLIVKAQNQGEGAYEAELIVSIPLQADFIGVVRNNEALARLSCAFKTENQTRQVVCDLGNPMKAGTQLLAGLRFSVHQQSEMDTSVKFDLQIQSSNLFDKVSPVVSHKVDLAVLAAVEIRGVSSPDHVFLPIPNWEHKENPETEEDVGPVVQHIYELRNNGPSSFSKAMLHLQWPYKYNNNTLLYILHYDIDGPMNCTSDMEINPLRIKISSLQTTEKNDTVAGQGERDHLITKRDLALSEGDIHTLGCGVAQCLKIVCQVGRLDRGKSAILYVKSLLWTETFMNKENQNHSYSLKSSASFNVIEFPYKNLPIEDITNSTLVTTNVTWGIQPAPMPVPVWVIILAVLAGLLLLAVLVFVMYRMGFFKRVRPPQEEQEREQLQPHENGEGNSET
# Sequence of UniProt P06756 (P05106 27-788, chain 2 of 2, further chain): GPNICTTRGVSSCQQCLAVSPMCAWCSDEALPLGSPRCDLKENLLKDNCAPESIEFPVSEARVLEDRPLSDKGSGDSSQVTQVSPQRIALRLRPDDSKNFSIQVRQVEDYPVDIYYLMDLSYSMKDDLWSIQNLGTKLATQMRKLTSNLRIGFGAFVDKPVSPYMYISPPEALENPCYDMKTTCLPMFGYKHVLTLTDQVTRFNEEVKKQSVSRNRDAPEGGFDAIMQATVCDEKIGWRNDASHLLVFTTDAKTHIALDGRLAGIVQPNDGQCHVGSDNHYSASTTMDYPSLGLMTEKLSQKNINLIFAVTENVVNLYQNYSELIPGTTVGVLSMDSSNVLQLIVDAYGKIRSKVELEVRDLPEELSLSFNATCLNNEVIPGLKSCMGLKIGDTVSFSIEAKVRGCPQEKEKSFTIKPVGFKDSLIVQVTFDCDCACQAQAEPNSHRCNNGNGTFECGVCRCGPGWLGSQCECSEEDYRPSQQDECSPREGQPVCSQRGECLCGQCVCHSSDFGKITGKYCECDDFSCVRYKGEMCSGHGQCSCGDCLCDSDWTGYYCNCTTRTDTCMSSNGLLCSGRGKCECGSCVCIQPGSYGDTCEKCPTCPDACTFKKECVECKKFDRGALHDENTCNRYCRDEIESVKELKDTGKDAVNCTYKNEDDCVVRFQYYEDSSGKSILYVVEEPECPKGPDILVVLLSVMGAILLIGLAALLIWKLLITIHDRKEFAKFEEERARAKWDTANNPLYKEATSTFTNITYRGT
reduction of gelatin degradation in MCF7-A12Δcyt cell cultures (αVβ3 integrin) [%],Compound,gelatin degradation [1],levels of apoptotic bodies (MDA-MB-231 cells),"effect on apoptosis (apoptotic bodies, ApopTag) (MCF7-A12Δcyt+dox cells)",fraction of apoptotic bodies (MCF7-A12Δcyt cells),"effect on apoptosis (apoptotic bodies, ApopTag) (wild-type MCF7 cells)"
,CNC(=O)[C@H](Cc1c[nH]c2ccccc12)NC(=O)[C@@H](CC(=O)NO)CC(C)C [GM6001],significant reduction,significantly increased,no effects,significantly increased,no effects
,CC(C)C[C@H](CC(=O)NO)C(=O)N[C@H](C(=O)N[C@@H](C)C(=O)NCCN)C(C)(C)C [TAPI-2],significant reduction,,,,
80,mouse monoclonal antibody LM609 against αVβ3 integrin (Chemicon/Millipore),,,,,

# Reference: patent publication US20160208016A1, “Anti-ADAM12 antibodies for the treatment of cancer” (UNIVERSITY OF COPENHAGEN, priority 2013, published 2016)
